The target of this test is T1, human GluN1/GluN2B NMDA receptors (Homo sapiens, UniProt Q13224).
T1 construct: expressed in transfected cells
T1 sequence (Q13224 27-1484, other chains not shown): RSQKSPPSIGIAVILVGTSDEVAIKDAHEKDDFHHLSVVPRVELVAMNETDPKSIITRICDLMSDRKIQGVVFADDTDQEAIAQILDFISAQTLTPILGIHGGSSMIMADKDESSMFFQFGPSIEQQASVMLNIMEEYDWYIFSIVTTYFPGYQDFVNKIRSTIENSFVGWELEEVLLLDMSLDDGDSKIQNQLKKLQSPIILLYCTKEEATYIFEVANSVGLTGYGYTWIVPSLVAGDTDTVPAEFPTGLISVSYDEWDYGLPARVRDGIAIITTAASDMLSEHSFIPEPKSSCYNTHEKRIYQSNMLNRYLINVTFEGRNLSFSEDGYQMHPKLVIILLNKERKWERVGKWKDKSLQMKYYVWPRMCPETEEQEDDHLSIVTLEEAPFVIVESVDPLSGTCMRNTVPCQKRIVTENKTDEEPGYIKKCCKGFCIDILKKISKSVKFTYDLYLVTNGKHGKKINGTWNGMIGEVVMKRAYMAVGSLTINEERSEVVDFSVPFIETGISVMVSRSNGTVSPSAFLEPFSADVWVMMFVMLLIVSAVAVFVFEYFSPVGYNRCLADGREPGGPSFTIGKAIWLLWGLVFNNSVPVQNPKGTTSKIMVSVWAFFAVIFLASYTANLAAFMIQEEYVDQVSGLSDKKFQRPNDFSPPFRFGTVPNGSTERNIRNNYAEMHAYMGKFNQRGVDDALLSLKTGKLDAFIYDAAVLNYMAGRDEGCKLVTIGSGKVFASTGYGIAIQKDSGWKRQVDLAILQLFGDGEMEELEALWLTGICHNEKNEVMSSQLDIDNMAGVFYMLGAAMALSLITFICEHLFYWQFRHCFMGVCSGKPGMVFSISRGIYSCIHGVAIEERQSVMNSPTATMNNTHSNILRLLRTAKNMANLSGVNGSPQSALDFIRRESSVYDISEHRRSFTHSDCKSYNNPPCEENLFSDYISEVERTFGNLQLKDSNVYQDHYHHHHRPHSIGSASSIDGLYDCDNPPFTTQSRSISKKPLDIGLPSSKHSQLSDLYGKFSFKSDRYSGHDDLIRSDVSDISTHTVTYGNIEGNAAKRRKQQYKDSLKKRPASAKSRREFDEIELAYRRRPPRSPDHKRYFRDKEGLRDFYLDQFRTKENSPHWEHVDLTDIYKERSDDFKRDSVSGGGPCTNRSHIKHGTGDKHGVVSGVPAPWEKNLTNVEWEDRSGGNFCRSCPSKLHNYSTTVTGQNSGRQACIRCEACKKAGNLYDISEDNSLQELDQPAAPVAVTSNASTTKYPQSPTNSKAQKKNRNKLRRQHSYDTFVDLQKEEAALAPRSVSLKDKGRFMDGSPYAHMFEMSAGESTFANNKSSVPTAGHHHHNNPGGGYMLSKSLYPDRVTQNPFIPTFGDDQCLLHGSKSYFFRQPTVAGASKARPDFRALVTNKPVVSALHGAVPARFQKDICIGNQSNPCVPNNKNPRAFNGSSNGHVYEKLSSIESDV
The experiment in a line: Cell-based calcium flux (FLIPR) assay on cloned human NR1/NR2B ion channels expressed in mammalian cells (standard and HTS buffer variants).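 Note: stable Tet-On inducible cell line, Ca2+ influx triggered by glutamate at about EC40 plus 10 µM glycine, fluorescent dye read-out over 5 min, normalized to control wells.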 As to conditions: standard assay buffer (0.5 mM MgCl2 dye loading; 137 mM NaCl, 4 mM KCl assay buffer), human GluN1/GluN2B cells, read-out: NR2B IC50 (μM) standard assay.
For orientation: IC50 means the midpoint of a concentration-inhibition curve. With `Cn1c(=O)n(Cc2ncccn2)c2cc(-c3ccc(F)c(F)c3)cnc21` [Example 64, 6-(3,4-Difluorophenyl)-3-methyl-1-(pyrimidin-2-ylmethyl)imidazo[4,5-b]pyridin-2-one], the IC50 is 3.59 µM.

On to `Cc1c(F)ccc(-c2cnc3c(c2)n(Cc2ncccn2)c(=O)n3C)c1F` [Example 65, 6-(2,4-Difluoro-3-methyl-phenyl)-3-methyl-1-(pyrimidin-2-ylmethyl)imidazo[4,5-b]pyridin-2-one], for which the 50% inhibitory concentration (IC50) came out at 0.81 µM.

On to `Cc1c(F)ccc(-c2cnc3c(c2)n(Cc2ccncc2)c(=O)n3C)c1F` [Example 66, 6-(2,4-Difluoro-3-methyl-phenyl)-3-methyl-1-(4-pyridylmethyl)imidazo[4,5-b]pyridin-2-one], for which the half-inhibitory concentration (IC50) turned out to be 0.725 µM.

`Cc1c(F)ccc(-c2cnc3c(c2)n(Cc2cccnn2)c(=O)n3C)c1F` [Example 67, 6-(2,4-Difluoro-3-methyl-phenyl)-3-methyl-1-(pyridazin-3-ylmethyl)imidazo[4,5-b]pyridin-2-one]: the 50% inhibitory concentration (IC50) was found to be 0.009 µM.

Consider `Cc1c(F)ccc(-c2cnc3c(c2)n(Cc2ccccn2)c(=O)n3C)c1F` [Example 68, 6-(2,4-Difluoro-3-methyl-phenyl)-3-methyl-1-(2-pyridylmethyl)imidazo[4,5-b]pyridin-2-one], for which the IC50 turned out to be 0.31 µM.

Take `Cc1c(F)ccc(-c2cnc3c(c2)n(Cc2cncnc2)c(=O)n3C)c1F` [Example 69]: the IC50 was 0.033 µM.

In the case of `Cn1c(=O)n(Cc2ccncn2)c2cc(-c3ccc(F)c(F)c3)cnc21` [Example 70, 6-(3,4-Difluorophenyl)-3-methyl-1-(pyrimidin-4-ylmethyl)imidazo[4,5-b]pyridin-2-one], the IC50 is 2.21 µM.

Consider `Cc1cc(-c2cnc3c(c2)n(Cc2ccncn2)c(=O)n3C)ccc1F` [Example 71, 6-(4-Fluoro-3-methyl-phenyl)-3-methyl-1-(pyrimidin-4-ylmethyl)imidazo[4,5-b]pyridin-2-one], for which the half-inhibitory concentration (IC50) was 0.278 µM.

Take `Cc1c(F)ccc(-c2cnc3c(c2)n(Cc2ccncn2)c(=O)n3C)c1F` [Example 72, 6-(2,4-Difluoro-3-methyl-phenyl)-3-methyl-1-(pyrimidin-4-ylmethyl)imidazo[4,5-b]pyridin-2-one]: the concentration for half-maximal inhibition (IC50) was found to be 0.482 µM.

With `Cc1nnc(Cn2c(=O)n(C)c3ncc(-c4ccc(F)c(F)c4)cc32)o1` [Example 73, 6-(3,4-Difluorophenyl)-3-methyl-1-[(5-methyl-1,3,4-oxadiazol-2-yl)methyl]imidazo[4,5-b]pyridin-2-one], the IC50 turned out to be 0.314 µM.

Turning to `Cc1cc(Cn2c(=O)n(C)c3ncc(-c4cccc(C(F)(F)F)c4)cc32)no1` [Example 74, 3-Methyl-1-[(5-methylisoxazol-3-yl)methyl]-6-[3-(trifluoromethyl)phenyl]imidazo[4,5-b]pyridin-2-one], the IC50 stood at 0.057 µM.

As to `Cc1nnc(Cn2c(=O)n(C)c3ncc(-c4cccc(C(F)(F)F)c4)cc32)o1` [Example 75, 3-Methyl-1-[(5-methyl-1,3,4-oxadiazol-2-yl)methyl]-6-[3-(trifluoromethyl)phenyl]imidazo[4,5-b]pyridin-2-one], the concentration for half-maximal inhibition (IC50) is 0.093 µM.

As for `Cc1noc(Cn2c(=O)n(C)c3ncc(-c4cccc(C(F)(F)F)c4)cc32)n1` [Example 76, 3-Methyl-1-[(3-methyl-1,2,4-oxadiazol-5-yl)methyl]-6-[3-(trifluoromethyl)phenyl]imidazo[4,5-b]pyridin-2-one], the IC50 worked out at 0.218 µM.

With `Cc1noc(Cn2c(=O)n(C)c3ncc(-c4ccc(F)c(F)c4)cc32)n1` [Example 77, 6-(3,4-Difluorophenyl)-3-methyl-1-[(3-methyl-1,2,4-oxadiazol-5-yl)methyl]imidazo[4,5-b]pyridin-2-one], the half-maximal inhibitory concentration (IC50) came to 0.457 µM.

Take `Cc1ccc(-c2cnc3c(c2)n(CC(=O)N(C)C)c(=O)n3C)s1` [Example 78, N,N-Dimethyl-2-[3-methyl-6-(5-methyl-2-thienyl)-2-oxo-imidazo[4,5-b]pyridin-1-yl]acetamide]: the 50% inhibitory concentration (IC50) is 0.043 µM.

Take `CCc1ccc(-c2cnc3c(c2)n(CC(=O)N(C)C)c(=O)n3C)s1` [Example 79, 2-[6-(5-Ethyl-2-thienyl)-3-methyl-2-oxo-imidazo[4,5-b]pyridin-1-yl]-N,N-dimethyl-acetamide]: the IC50 was determined as 0.031 µM.

Take `Cc1csc(-c2cnc3c(c2)n(CC(=O)N(C)C)c(=O)n3C)c1` [Example 80, N,N-Dimethyl-2-[3-methyl-6-(4-methyl-2-thienyl)-2-oxo-imidazo[4,5-b]pyridin-1-yl]acetamide]: the IC50 amounted to 0.03 µM.

`Cn1c(=O)n(CC(=O)N2CCC2)c2cc(-c3ccc(F)s3)cnc21` [Example 81, 1-[2-(Azetidin-1-yl)-2-oxo-ethyl]-6-(5-fluoro-2-thienyl)-3-methyl-imidazo[4,5-b]pyridin-2-one]: the IC50 came to 0.031 µM.

For the compound `CN(C)C(=O)Cn1c(=O)n(C)c2ncc(-c3ccc(F)s3)cc21` [Example 82, 2-[6-(5-Fluoro-2-thienyl)-3-methyl-2-oxo-imidazo[4,5-b]pyridin-1-yl]-N,N-dimethyl-acetamide], the IC50 worked out at 0.154 µM.

In the case of `Cn1c(=O)n(CC(=O)N2CC(F)C2)c2cc(-c3ccc(F)s3)cnc21` [Example 83, 1-[2-(3-Fluoroazetidin-1-yl)-2-oxo-ethyl]-6-(5-fluoro-2-thienyl)-3-methyl-imidazo[4,5-b]pyridin-2-one], the IC50 was 0.033 µM.

Turning to `Cn1c(=O)n(Cc2cccnn2)c2cc(-c3ccc(C(F)(F)F)s3)cnc21` [Example 84, 3-Methyl-1-(pyridazin-3-ylmethyl)-6-[5-(trifluoromethyl)-2-thienyl]imidazo[4,5-b]pyridin-2-one], the IC50 was 0.03 µM.

As to `Cn1c(=O)n(Cc2cccnn2)c2cc(-c3ccc(F)s3)cnc21` [Example 85, 6-(5-Fluoro-2-thienyl)-3-methyl-1-(pyridazin-3-ylmethyl)imidazo[4,5-b]pyridin-2-one], the IC50 was found to be 0.157 µM.

Regarding `Cc1csc(-c2cnc3c(c2)n(CC(=O)N2CC(F)C2)c(=O)n3C)n1` [Example 86, 1-[2-(3-Fluoroazetidin-1-yl)-2-oxo-ethyl]-3-methyl-6-(4-methylthiazol-2-yl)imidazo[4,5-b]pyridin-2-one], the half-maximal inhibitory concentration (IC50) stood at 1.6 µM.

As for `CCc1ccc(-c2cnc3c(c2)n(CC(=O)N2CCC2)c(=O)n3C)s1` [Example 87, 1-[2-(Azetidin-1-yl)-2-oxo-ethyl]-6-(5-ethyl-2-thienyl)-3-methyl-imidazo[4,5-b]pyridin-2-one], the IC50 was 0.021 µM.

In the case of `CCc1ccc(-c2cnc3c(c2)n(CC(=O)N2CC(F)C2)c(=O)n3C)s1` [Example 88, 6-(5-Ethyl-2-thienyl)-1-[2-(3-fluoroazetidin-1-yl)-2-oxo-ethyl]-3-methyl-imidazo[4,5-b]pyridin-2-one], the half-inhibitory concentration (IC50) was 0.02 µM.

Consider `Cn1c(=O)n(CC(=O)N2CCC2)c2cc(-c3ccc(CO)s3)cnc21` [Example 89, 1-[2-(Azetidin-1-yl)-2-oxo-ethyl]-6-[5-(hydroxymethyl)-2-thienyl]-3-methyl-imidazo[4,5-b]pyridin-2-one], for which the IC50 came out at 0.549 µM.

On to `Cn1c(=O)n(CC(=O)N2CC(F)C2)c2cc(-c3ccc(CO)s3)cnc21` [Example 90, 1-[2-(3-Fluoroazetidin-1-yl)-2-oxo-ethyl]-6-[5-(hydroxymethyl)-2-thienyl]-3-methyl-imidazo[4,5-b]pyridin-2-one], for which the IC50 turned out to be 0.915 µM.

`CN(C)C(=O)Cn1c(=O)n(C)c2ncc(-c3ccc(CO)s3)cc21` [Example 91, 2-[6-[5-(Hydroxymethyl)-2-thienyl]-3-methyl-2-oxo-imidazo[4,5-b]pyridin-1-yl]-N,N-dimethyl-acetamide]: the half-maximal inhibitory concentration (IC50) is 1.7 µM.

Turning to `Cn1c(=O)n(CC(=O)N2CC(F)C2)c2cc(-c3ccsc3C(F)(F)F)cnc21` [Example 92, 1-[2-(3-Fluoroazetidin-1-yl)-2-oxo-ethyl]-3-methyl-6-[2-(trifluoromethyl)-3-thienyl]imidazo[4,5-b]pyridin-2-one], the IC50 amounted to 0.249 µM.

For the compound `Cn1c(=O)n(CC(=O)N2CCC2)c2cc(-c3ccc(C(F)F)s3)cnc21` [Example 93, 1-[2-(Azetidin-1-yl)-2-oxo-ethyl]-6-[5-(difluoromethyl)-2-thienyl]-3-methyl-imidazo[4,5-b]pyridin-2-one], the half-inhibitory concentration (IC50) amounted to 0.006 µM.

Regarding `CN(C)C(=O)Cn1c(=O)n(C)c2ncc(-c3ccc(C(F)F)s3)cc21` [Example 94, 2-[6-[5-(Difluoromethyl)-2-thienyl]-3-methyl-2-oxo-imidazo[4,5-b]pyridin-1-yl]-N,N-dimethyl-acetamide], the 50% inhibitory concentration (IC50) is 0.017 µM.

On to `Cn1c(=O)n(CC(=O)N2CCC2)c2cc(-c3ccsc3C(F)(F)F)cnc21` [Example 95, 1-[2-(Azetidin-1-yl)-2-oxo-ethyl]-3-methyl-6-[2-(trifluoromethyl)-3-thienyl]imidazo[4,5-b]pyridin-2-one], for which the IC50 was determined as 0.096 µM.

On to `CN(C)C(=O)Cn1c(=O)n(C)c2ncc(-c3ccsc3C(F)(F)F)cc21` [Example 96, N,N-Dimethyl-2-[3-methyl-2-oxo-6-[2-(trifluoromethyl)-3-thienyl]imidazo[4,5-b]pyridin-1-yl]acetamide], for which the IC50 is 0.522 µM.

Turning to `CN(C)C(=O)Cn1c(=O)n(C)c2ncc(-c3csc(C(F)F)c3)cc21` [Example 97, 2-[6-[5-(Difluoromethyl)-3-thienyl]-3-methyl-2-oxo-imidazo[4,5-b]pyridin-1-yl]-N,N-dimethyl-acetamide], the IC50 stood at 0.015 µM.

As to `Cn1c(=O)n(CC(=O)N2CCC2)c2cc(-c3csc(C(F)F)c3)cnc21` [Example 98, 1-[2-(Azetidin-1-yl)-2-oxo-ethyl]-6-[5-(difluoromethyl)-3-thienyl]-3-methyl-imidazo[4,5-b]pyridin-2-one], the 50% inhibitory concentration (IC50) amounted to 0.013 µM.

In the case of `Cn1c(=O)n(Cc2cccnn2)c2cc(-c3ccc(C(F)F)s3)cnc21` [Example 100, 6-[5-(Difluoromethyl)-2-thienyl]-3-methyl-1-(pyridazin-3-ylmethyl)imidazo[4,5-b]pyridin-2-one], the IC50 was determined as 0.033 µM.

As to `CN(C)C(=O)Cn1c(=O)n(C)c2ncc(-c3csc(C(F)(F)F)c3)cc21` [Example 101, N,N-Dimethyl-2-[3-methyl-2-oxo-6-[5-(trifluoromethyl)-3-thienyl]imidazo[4,5-b]pyridin-1-yl]acetamide], the IC50 was determined as 0.019 µM.
